Experimental data taken from paper PMC4920590, “GPR142 Controls Tryptophan-Induced Insulin and Incretin Hormone Secretion to Improve Glucose Metabolism” (PLoS ONE, 2016).

Assays:
[1] = test system: Calcium-sensing receptor (CaSR); set-up: method as in PMID 24812056; conditions: rats; cited from earlier work
[2] = Glucose tolerance test (IPGTT/OGTT) after oral dosing in mice; format: in vivo, mouse
Experimental: (§1) Mice were fasted overnight and allowed free access to water. […] Tail blood glucose levels were measured at indicated time points using handheld glucometers. For incretin hormone measurements, blood was collected via cardiac bleeds into EDTA-tubes containing DPP-4 inhibitor (Millipore) and protease inhibitor cocktail (Thermo Fisher). For insulin measurements during GTT, blood was collected from the tail.

human GPR142 = molecular target: T1, human GPR142 (Homo sapiens, UniProt Q7Z601); test: IP-1 accumulation assay in HEK293 cells stably expressing human GPR142; format: cell-based
T1 construct: expressed in transfected cells
T1 sequence (Q7Z601 1-374 isoform Q7Z601-2): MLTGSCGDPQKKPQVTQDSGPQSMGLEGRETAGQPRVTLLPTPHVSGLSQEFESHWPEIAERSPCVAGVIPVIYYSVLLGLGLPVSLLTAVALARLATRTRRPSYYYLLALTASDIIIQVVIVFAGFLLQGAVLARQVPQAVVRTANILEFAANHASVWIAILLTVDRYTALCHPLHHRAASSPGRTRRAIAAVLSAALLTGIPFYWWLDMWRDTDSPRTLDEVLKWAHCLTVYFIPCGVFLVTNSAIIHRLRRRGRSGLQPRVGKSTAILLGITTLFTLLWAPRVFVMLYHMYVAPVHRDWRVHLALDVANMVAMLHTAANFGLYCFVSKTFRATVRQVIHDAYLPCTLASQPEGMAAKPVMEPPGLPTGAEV
Experimental: (§2) HEK293 cells obtained from ATCC were used to generate cell lines stably expressing human GPR142 or mouse Gpr142 by transfecting cells with pcDNA3.1 expression vectors containing each cDNA. Cells expanded from single clones were maintained in DMEM containing 10% fetal bovine serum (FBS) and 800 μg/ml G418. Untransfected control HEK293 cells were maintained in DMEM containing 10% FBS. Cells were plated in 384 well plates at 5000 cells per well and allowed 18 hours for attachment. After addition of compounds, cells were incubated for 1 hour. IP-1 measurements were performed using an HTRF assay kit (Cisbio) according to manufacturer’s protocol using assay buffer containing 1 × HBSS (Hank’s Balanced Salt Solution, +Ca, +Mg), 0.1% bovine serum albumin (BSA), 50 mM LiCl and 20 mM HEPES (4-(2-hydroxyethyl)-1-piperazineethanesulfonic acid), pH 7.2. The reaction was stopped by addition of IP1-d2 followed by cryptate solution and the plates were incubated at 25°C for 1 hour. Fluorescence was read in an Envision instrument at 665 nm and 620 nm. The ratio of 665 nm/620 nm was calculated and converted to IP-1 levels using a standard curve method. The data was fit to 4-parameter fit logistics to determine EC50 values.

murine pancreatic islets = test: Insulin secretion in isolated murine pancreatic islets (WT and Gpr142 KO); format: cell-based, mouse; conditions: 11.1 mM glucose, 1 hour
Experimental: Secretion was stopped by refrigerating the plates at 4°C for 3 minutes. Supernatant was removed from the wells and assayed for insulin levels using the MA6000 Mouse/Rat Insulin Kit (Meso Scale Discovery).

[3] = Plasma insulin and incretin hormone levels after oral dosing in mice; format: in vivo, mouse
Experimental: as §1
Immunoassays were used to measure total GIP (Millipore, ELISA), total GLP-1, and insulin (Meso Scale Discovery). Enzymatic assays were used to measure TG, beta-hydroxybutarate (Sigma-Aldrich), and total cholesterol (Thermo Fisher). HDL-cholesterol was determined in the supernatant after removal of LDL/vLDL-cholesterol by a precipitation reagent (Sigma-Aldrich); non-HDL-cholesterol was determined by subtracting HDL from total cholesterol. Free fatty acids were measured by GC-MS.

human pancreatic islets = test: Insulin secretion in isolated human pancreatic islets; format: cell-based; conditions: 11 mM glucose, 1 hour, non-diabetic donor
Excerpt: Human pancreatic islets were purchased from Prodo Labs at the Scharp-Lacy Research Institute (Irvine, CA, www.prodolabs.com) through the Integrated Islet Distribution Program in accordance with internal review board (IRB) ethical guidelines for use of human tissue. Islets were isolated at Prodo Labs from human pancreata from listed cadaver organ donors that were refused for primary human pancreas transplantation or isolated islets transplantion into listed diabetic recipients. […] The next day day islets were incubated for 30 min in EBSS buffer containing 0.1% BSA and 3 mM glucose. […] Islets were cultured for 60 min at 37°C. The incubation was stopped by chilling the samples on ice. The culture media was removed and stored at -20°C until its insulin concentration was measured. Insulin was measured using a custom built immunoassay (Meso Scale Discovery).

mouse GPR142 = molecular target: T2, mouse GPR142 (Mus musculus, UniProt Q7TQN9); test: IP-1 accumulation assay in HEK293 cells stably expressing mouse Gpr142; format: cell-based
T2 sequence (Q7TQN9 67-365 limits assumed): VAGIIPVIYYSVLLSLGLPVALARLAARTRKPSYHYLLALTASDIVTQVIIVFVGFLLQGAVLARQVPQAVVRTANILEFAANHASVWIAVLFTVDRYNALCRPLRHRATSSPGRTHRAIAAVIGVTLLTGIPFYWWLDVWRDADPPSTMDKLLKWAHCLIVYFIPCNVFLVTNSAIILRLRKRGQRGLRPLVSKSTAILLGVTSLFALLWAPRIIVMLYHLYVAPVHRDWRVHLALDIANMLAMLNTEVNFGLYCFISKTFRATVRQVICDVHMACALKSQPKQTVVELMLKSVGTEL
Experimental: as §2

[4] = test system: untransfected control HEK293 cells; test: IP-1 accumulation in untransfected control HEK293 cells; format: cell-based; conditions: Fig 1B
Experimental: as §2

[5] = set-up: method as in PMID 25787200; conditions: humans, phase III study; cited from earlier work
[6] = test system: Free Fatty Acid Receptor 1 (FFAR1, GPR40); set-up: method as in PMID 21752941; conditions: preclinical models; cited from earlier work
[7] = 500 mg/kg p.o. 15 minutes prior to glucose 2 g/kg i.p.
[8] = 500 mg/kg p.o. 15 minutes prior to glucose 2 g/kg p.o.
[9] = 500 mg/kg p.o., 10 minutes after dosing, vs WT
[10] = 150 or 500 mg/kg p.o., overnight fasted normal C57 male mice

For `C[C@@H](NCCCc1cccc(C(F)(F)F)c1)c1cccc2ccccc12` [Cinacalcet], the glucose [1] is listed as “lower glucose”.

With `N[C@@H](Cc1c[nH]c2ccccc12)C(=O)O` [L-Tryptophan] the “glucose excursion during IPGTT in Gpr142 KO mice” value [2, 7] was “no significant effect”, the “glucose excursion during IPGTT in WT mice” value [2, 7] was “suppressed glucose excursion” and the “glucose excursion during OGTT in Gpr142 KO mice” value [2, 8] was “no significant effect”. The “glucose excursion during OGTT in WT mice” value [2, 8] was “suppressed glucose excursion”, the “IP-1 accumulation in HEK-hGPR142 cells” value (human GPR142; Fig 1A, 1B) was “stimulated IP-1 accumulation” and the Emax (human GPR142; HEK293, relative efficacy normalized to maximal response of L-Tryptophan (100%), read-out: HEK293-hGPR142 Emax) was 100%. For the same compound, the EC50 (human GPR142; IP-1 accumulation, 1 hour, 170 nM to 30 mM, read-out: HEK293-hGPR142 EC50) was 2.1 mM, the “insulin secretion in Gpr142 KO islets compared with WT islets” value (murine pancreatic islets) was “significantly blunted” and the “insulin secretion in WT murine islets” value (murine pancreatic islets) was “dose-dependently stimulated the release of insulin”. The “GIP release in Gpr142 KO mice” value [3, 9] was “no L-Trp-dependent release”, the “insulin release in Gpr142 KO mice” value [3, 9] was “no L-Trp-dependent release” and the “plasma GLP-1 in Gpr142 KO mice” value [3, 9] was “increased GLP-1 in KO mice to a similar extent as in WT”. The “time of peak plasma insulin, GIP and GLP-1 concentrations after dosing” value ([3]; 150 or 500 mg/kg p.o., normal C57 male mice) was 5 to 10 min, the “plasma GIP level” value [3, 10] was “rapidly and dose-dependently increased” and the “plasma GLP-1 level” value [3, 10] was “rapidly and dose-dependently increased”. For the same compound, the plasma insulin level [3, 10] was “rapidly and dose-dependently increased”, the “insulin secretion in human primary islets” value (human pancreatic islets) was “robustly stimulated insulin secretion” and the “IP-1 accumulation in HEK-mGPR142 cells” value (mouse GPR142) was “stimulated IP-1 accumulation”. For the same compound, the Emax (mouse GPR142; HEK293, relative efficacy normalized to maximal response of L-Tryptophan (100%), read-out: HEK293-mGPR142 Emax) was 100%, the EC50 (mouse GPR142; IP-1 accumulation, 1 hour, 170 nM to 30 mM, read-out: HEK293-mGPR142 EC50) was 620 µM and the “IP-1 accumulation in untransfected control HEK293 cells” value [4] was “had no effect”.

In the case of `Cc1cc(OCCCS(C)(=O)=O)cc(C)c1-c1cccc(COc2ccc3c(c2)OC[C@H]3CC(=O)O)c1` [TAK-875], the glycemic control [5] is listed as “improve glycemic control” and the glucose-dependent insulin secretion [6] is listed as “stimulate glucose-dependent insulin secretion”.
